{"source": "paper PMC12260505", "about": "“First-in-Human Phase I/IIa Study of the First-in-Class CDK2/4/6 Inhibitor PF-06873600 Alone or with Endocrine Therapy in Patients with Breast Cancer” (Clinical Cancer Research, 2025)", "experiment": "Dose-limiting toxicities in dose escalation (modified toxicity probability interval method)", "type": "in vivo, human", "experimental": "Part 1 included adult patients with HR^+/HER2^− advanced breast cancer or mBC (third- or fourth-line setting), locally recurrent/advanced or metastatic TNBC, or advanced platinum-resistant epithelial ovarian cancer/fallopian tube cancer/primary peritoneal cancer who received oral PF-06873600 at doses of 1 to 50 mg twice daily or oral PF-06873600 plus ET (letrozole or fulvestrant). Primary endpoints for part 1 dose escalation determined safety and tolerability to define dose-limiting toxicities (DLT), estimate the maximum tolerated dose, and select the recommended dose for expansion (RDE). Safety endpoints included adverse events (AE) characterized by type, frequency, severity [as graded by NCI Common Terminology Criteria for Adverse Events (CTCAE) version 4.03], timing, seriousness, and relationship to study therapy. Laboratory abnormalities were characterized by type, frequency, severity (as graded by NCI CTCAE version 4.03), timing, vital sign abnormalities, and heart rate–corrected QT interval (e.g., QTcF). Secondary endpoints included PK, preliminary antitumor activity as assessed using RECIST version 1.1, time-to-event endpoints including objective response rate (ORR), duration of response (DoR), progression-free survival (PFS), time to progression (TTP), and modulation of tumor CDK biomarkers [phosphorylated Rb (pRb), Ki67]. Exploratory endpoints included molecular profiling of tumor and ctDNA and the relationship to clinical outcome.\nIn part 1A, dose escalation monotherapy, patients received escalating doses of a single-agent immediate release (IR) formulation of PF-06873600, 1 to 50 mg twice daily orally on a continuous basis, with dose escalation following the modified toxicity probability interval method. Seven dose levels were evaluated: 1, 2, 5, 10, 25, 35, and 50 mg. An alternative intermittent dosing regimen (5 days on/2 days off) was also explored at 35 mg twice daily. Part 1B combination dose-finding involved PF-06873600 IR 25 mg twice daily with ET (letrozole or fulvestrant, each administered per standard of care). Letrozole was administered orally once daily together with PF-06873600. No dose adjustment for letrozole was permitted, but dosing interruptions were allowed. Fulvestrant 500 mg was administered intramuscularly on cycle 1 day 1 and day 15, cycle 2 day 1, and then monthly thereafter (±3 days) to accommodate dosing on day 1 of each cycle. No dose adjustment for fulvestrant was permitted. Part 1C evaluated two modified release (MR) formulations of PF-06873600: one in the single-dose setting and the other in the twice-daily setting. A cycle was defined as 28 days, regardless of missed doses or dose delays.\nDLT was the primary endpoint of the study, summarized by dose level using the per-protocol analysis set for patients in the dose escalation portion of the study. Efficacy analysis was summarized by dose cohorts for part 2 of the study. For part 1, no formal efficacy analysis was presented. For part 2, tumor response was presented in the form of patient data listings that included, but were not limited to, tumor type, starting dose, tumor response at each visit, and best overall response. In addition, progression date, death date, date of first response, last tumor assessment date, and date of last contact were listed. ORR, PFS, overall survival, TTP, and DoR were summarized and presented as data permitted. For response-based metrics (best overall response, ORR, and DoR), analyses were presented on the basis of confirmed responses. Analyses of PFS and TTP were defined as the time from the date of the first dose. Summaries of the number and percentage of patients with PFS and TTP and data listings by tumor type and dose were generated based on data availability. The 95% confidence intervals (CI) for medians and quartiles were generated based on the Brookmeyer–Crowley method, whereas CIs for the estimated probability of an event at a particular time point were generated using the Greenwood formula. […]", "key": {"[1]": {"settings": "part 1A 35 mg twice daily, N = 2, DLT-evaluable set"}, "[2]": {"settings": "part 1A 50 mg twice daily, N = 8, DLT-evaluable set"}}, "data": [{"smiles": "C[C@@]1(O)CCC[C@H]1n1c(=O)c(C(F)F)cc2cnc(NC3CCN(S(C)(=O)=O)CC3)nc21", "note": "[PF-06873600]", "values": [{"measurement": "DLTs at the monotherapy RDE", "setting": "25 mg twice daily, single-agent or combination groups", "result": "No DLTs"}, {"measurement": "DLT, Cardiac arrest", "setting": "[1]", "result": "0 n (%)"}, {"measurement": "DLT, Colitis", "setting": "[1]", "result": "0 n (%)"}, {"measurement": "DLT, Fatigue", "setting": "[1]", "result": "0 n (%)"}, {"measurement": "DLT, Febrile neutropenia", "setting": "[1]", "result": "0 n (%)"}, {"measurement": "DLT, Multiple organ dysfunction syndrome", "setting": "[1]", "result": "0 n (%)"}, {"measurement": "DLT, Neutrophil count decreased", "setting": "[1]", "result": "2 (100.0) n (%)"}, {"measurement": "DLT, Platelet count decreased", "setting": "[1]", "result": "1 (50.0) n (%)"}, {"measurement": "DLT, Thrombocytopenia", "setting": "[1]", "result": "0 n (%)"}, {"measurement": "Patients with any DLTs", "setting": "[1]", "result": "2 (100.0) n (%)"}, {"measurement": "DLT, Cardiac arrest", "setting": "[2]", "result": "1 (12.5) n (%)"}, {"measurement": "DLT, Colitis", "setting": "[2]", "result": "1 (12.5) n (%)"}, {"measurement": "DLT, Fatigue", "setting": "[2]", "result": "1 (12.5) n (%)"}, {"measurement": "DLT, Febrile neutropenia", "setting": "[2]", "result": "3 (37.5) n (%)"}, {"measurement": "DLT, Multiple organ dysfunction syndrome", "setting": "[2]", "result": "1 (12.5) n (%)"}, {"measurement": "DLT, Neutrophil count decreased", "setting": "[2]", "result": "0 n (%)"}, {"measurement": "DLT, Platelet count decreased", "setting": "[2]", "result": "0 n (%)"}, {"measurement": "DLT, Thrombocytopenia", "setting": "[2]", "result": "1 (12.5) n (%)"}, {"measurement": "Patients with any DLTs", "setting": "[2]", "result": "4 (50.0) n (%)"}, {"measurement": "Patients with DLTs (all treatment-related)", "setting": "part 1A, 42 patients evaluable for DLT", "result": 14.3, "unit": "%"}, {"measurement": "Recommended dose for expansion (RDE)", "setting": "single-agent and combination dosing groups", "result": 25, "unit": "mg twice daily"}]}]}
